# According to US8367666B2 (priority 2004, dated 2013):
# Read-outs that look alike come from different tables or passages of the source.
# Legend:
# [1] = biological target: T1, CB1 receptor (Homo sapiens, UniProt P21554); test: Human cannabinoid receptor bonding inhibition test ([3H]CP55940), CB1; format: binding; design: expressed in transfected cells; membrane fraction
# [2] = biological target: T2, CB2 receptor (Homo sapiens, UniProt P34972); test: Human cannabinoid receptor bonding inhibition test ([3H]CP55940), CB2; format: binding; design: expressed in transfected cells; membrane fraction
# [3] = system: scratching action induced by Compound 48/80; test: Anti-pruritic activity test by application (Compound 48/80 scratching); format: in vivo, mouse (Crj:CD-1 (ICR)); details: Mus musculus, topical, read-out: Itching inhibition ratio % (Concentration %)
# Method: 1) Preparation of the compound and the reagent: The compound being tested was dissolved in acetone (SIGMA). Compound 48/80 (SIGMA) was dissolved in physiological saline (m by Otsuka Pharmaceutical Co., Ltd.) so as to be 60 μg/mL.
# 2) Animals: Female Crj: CD-1 (ICR) mice of 6 to 10 age in week (Japan Charles Liver) were used as laboratory animals. The animals were fed in the barrier breeding room where […] in room temperature, 30 to 70% in humidity, and the light and shade condition existed every 12 hours and feed (CE-2: Japan Crea) and the drinking water were freely taken. The hair of dorsa (from the cervical region of the back to the center of the back) of the animals were cut with a hair clipper two days or more before the anti-pruritic activity is evaluated, those with no wound, rubefaction, and thickening of the skin on the dehaired part were chosen and supplied to the experiment on the day of the evaluation. 3) Evaluation procedures: The acetone solution of the compound being tested was applied by 50 μL on the dehaired parts of the mice with a pipeter. On the mice of the control group, 50 μL of acetone was applied. The 15 minutes later, 50 μL (corresponding to 3 μg) of Compound 48/80 solution was injected intradermally in the compound applied parts with the use of a injector (Terumo Corporation), the mice were individually put in five observation cages made of acrylate resin at once, and the scratching action (action of scratching the injection part by the hind leg) frequency during 30 minutes was measured. The evaluation was carried out in one group of 5 to 7 mice. 4) Data processing: The experiment results were shown by the mean values. The test of the significant difference of the compound applying group to the control group was conducted with Welch's t-test, and p<0.05 was assumed to be significant.
# [4] = biological target: T1, CB1 receptor; test: cAMP formation inhibition experiment through a cannabinoid receptor (forskolin stimulation), CB1; format: cell-based; design: expressed in transfected cells; host or cells: CHO cells
# Method: A compound being tested was added in the CHO cell which had mad human CB1 or CB2 receptor reveal and incubated for 15 minutes, and then forskolin (the final concentration 4 μM, and manufactured by SIGMA Corp.) was added and the mixture was incubated for 20 minutes. After the reaction had been stopped by adding 1M hydrochloric acid, the amount of cAMP in the supernatant was measured with the use of Cyclic AMP kit (made by the CIS Diagnostic Corp.).
# [5] = biological target: T2, CB2 receptor; test: cAMP formation inhibition experiment through a cannabinoid receptor (forskolin stimulation), CB2; format: cell-based; design: expressed in transfected cells; host or cells: CHO cells
# [6] = read-out: Agonist activity (nM) CB1
# [7] = [3H]CP55940 0.5 nM, membrane preparation of CHO cells expressing CB1, Ki calculated from IC50, read-out: Binding activity (nM) CB1
# [8] = [3H]CP55940 0.5 nM, membrane preparation of CHO cells expressing CB2, Ki calculated from IC50, read-out: Binding activity (nM) CB2
# T2 sequence (P34972 whole entry): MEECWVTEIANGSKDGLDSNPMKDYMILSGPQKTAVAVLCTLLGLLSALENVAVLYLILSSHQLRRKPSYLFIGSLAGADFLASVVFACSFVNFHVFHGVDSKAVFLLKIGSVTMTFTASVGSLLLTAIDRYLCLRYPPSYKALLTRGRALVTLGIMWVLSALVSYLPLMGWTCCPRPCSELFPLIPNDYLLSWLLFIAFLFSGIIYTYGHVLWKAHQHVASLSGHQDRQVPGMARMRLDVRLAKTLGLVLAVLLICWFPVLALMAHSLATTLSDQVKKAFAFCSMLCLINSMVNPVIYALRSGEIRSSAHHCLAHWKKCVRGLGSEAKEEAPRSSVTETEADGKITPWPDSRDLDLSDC
# T1 sequence (P21554 whole entry): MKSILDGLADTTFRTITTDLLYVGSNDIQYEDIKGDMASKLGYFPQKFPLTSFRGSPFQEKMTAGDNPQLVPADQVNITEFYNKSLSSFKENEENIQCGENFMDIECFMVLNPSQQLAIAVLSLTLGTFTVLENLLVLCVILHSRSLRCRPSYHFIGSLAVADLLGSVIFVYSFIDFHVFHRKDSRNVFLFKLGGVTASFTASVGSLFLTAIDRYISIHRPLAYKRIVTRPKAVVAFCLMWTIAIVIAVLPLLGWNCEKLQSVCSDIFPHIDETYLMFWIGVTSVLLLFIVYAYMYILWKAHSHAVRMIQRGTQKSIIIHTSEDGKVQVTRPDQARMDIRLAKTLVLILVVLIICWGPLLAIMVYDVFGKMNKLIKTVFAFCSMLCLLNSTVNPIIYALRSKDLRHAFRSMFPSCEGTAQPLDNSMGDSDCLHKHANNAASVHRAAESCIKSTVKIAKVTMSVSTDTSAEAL
smiles,measurement,setting,value
CC(C)(NC(=O)c1cc2c(n(CC3CCCCC3)c1=O)CCCCCC2)C(N)=O [Compound I-002],Ki,[1],48 nM
same,Ki,[2],7.1 nM
same,inhibition in vivo at 2.5 %,[3],68%
same,IC50,[4]; [6],11 nM
same,IC50,[5],4.4 nM
CCc1c(C)cc(C(=O)N[C@H](C(=O)NC(CO)CO)C(C)(C)C)c(=O)n1CC1CCCCC1 [Compound I-038],Ki,[1],7.1 nM
same,Ki,[2],< 2 nM
same,inhibition in vivo at 3 %,[3],67%
same,IC50,[4]; [6],34 nM
same,IC50,[5],< 2 nM
CC(C)(NC(=O)c1cc2c(n(CC3CCCCC3)c1=O)CCCCCC2)C(=O)N1CCC(NS(=O)(=O)C(C)(C)C)CC1 [Compound I-048],Ki,[1],118 nM
same,Ki,[2],2.6 nM
same,inhibition in vivo at 3 %,[3],58%
same,IC50,[4]; [6],328 nM
same,IC50,[5],17 nM
CC(C)(NC(=O)c1cc2c(n(CC3CCCCC3)c1=O)CCCCCC2)C(=O)NCC(N)=O [Compound I-054],Ki,[1]; [7],11 nM
same,Ki,[2]; [8],6 nM
same,inhibition in vivo at 2 %,[3],63%
same,IC50,[4]; [6],51 nM
same,IC50,[5],15 nM
"COC(=O)C(C)(C)NC(=O)c1cc2c(n(CC3CCCCC3)c1=O)CCCCCC2 [Compound I-084, methyl 2-[(1-cyclohexylmethyl-2-oxo-1,2,5,6,7,8,9,10-octahydro-cycloocta[b]pyridine-3-carbonyl]-amino}-2-methyl-propionate]",Ki,[1],< 2 nM
same,Ki,[2],< 2 nM
same,inhibition in vivo at 0.1 %,[3],60%
same,IC50,[4]; [6],< 2 nM
same,IC50,[5],< 2 nM
CC[C@@H](C)[C@H](NC(=O)c1cc(C)c(C)n(CC2CCCCC2)c1=O)C(=O)OC [Compound I-089],Ki,[1],< 2 nM
same,Ki,[2],< 2 nM
same,inhibition in vivo at 0.5 %,[3],65%
same,IC50,[4]; [6],< 2 nM
same,IC50,[5],< 2 nM
COC(=O)[C@@H](NC(=O)c1cc(C)c(C)n(Cc2ccc(F)cc2)c1=O)C(C)C [Compound I-094],Ki,[1],< 2 nM
same,Ki,[2],< 2 nM
same,inhibition in vivo at 0.5 %,[3],60%
same,IC50,[4]; [6],9 nM
same,IC50,[5],< 2 nM
O=C(N[C@H](C(=O)O)c1ccccc1)c1cc2c(n(CC3CCCCC3)c1=O)CCCCCC2 [Compound I-402],Ki,[1]; [7],34 nM
same,Ki,[2],< 2 nM
same,inhibition in vivo at 3 %,[3],59%
same,IC50,"[5]; inhibition of forskolin (4 μM)-stimulated cAMP formation, CHO cells expressing human CB2, read-out: Agonist activity (nM) CB2",5.7 nM
CCCCn1c(CCC)c(CC)cc(C(=O)NC2(C(=O)O)CCCCC2)c1=O [Compound I-411],Ki,[1]; read-out: Binding activity (nM) CB1,> 2000 nM
same,Ki,[2]; read-out: Binding activity (nM) CB2,382 nM
same,inhibition in vivo at 0.5 %,[3],80%
same,IC50,[4],> 2000 nM
same,IC50,[5]; read-out: Agonist activity (nM) CB2,556 nM
CC(C)CCn1c2c(cc(C(=O)N[C@@H](C(=O)O)c3ccccc3)c1=O)CCCCCC2 [Compound I-424],Ki,[1]; [7],357 nM
same,Ki,[2],3 nM
same,inhibition in vivo at 3 %,[3],62%
same,IC50,[4],> 2000 nM
same,IC50,[5],5.9 nM
O=C(NC(C(=O)O)c1ccco1)c1cc2c(n(CC3CCCCC3)c1=O)CCCCCC2 (stereo not drawn) [Compound I-530],Ki,[1],7 nM
same,Ki,[2],< 2 nM
same,inhibition in vivo at 2 %,[3],74%
same,IC50,[4]; [6],305 nM
CC(C)(NC(=O)c1cc2c(n(CC3CCCCC3)c1=O)CCCCCC2)C(=O)Nc1ccc(NS(C)(=O)=O)cc1 [Compound I-533],Ki,[1],21 nM
same,Ki,[2],< 2 nM
same,inhibition in vivo at 3 %,[3],73%
same,IC50,[4]; [6],> 2000 nM
same,IC50,[5],< 2 nM
CC(C)CCn1c2c(cc(C(=O)NC(C(=O)O)c3cccs3)c1=O)CCCCCC2 (stereo not drawn) [Compound I-551],Ki,[1],50 nM
same,Ki,[2],2.2 nM
same,inhibition in vivo at 2 %,[3],51%
same,IC50,[4]; [6],135 nM
same,IC50,[5],< 2 nM
CC(C)(NC(=O)c1cc2c(n(CC3CCCCC3)c1=O)CCCCCC2)C(=O)NNC(=O)c1cccnc1 [Compound I-556],Ki,[1],8.1 nM
same,Ki,[2],< 2 nM
same,inhibition in vivo at 3 %,[3],76%
same,IC50,[4]; [6],357 nM
same,IC50,[5],3.5 nM
CC(C)(C)OC(=O)NC1CCN(C(=O)C(C)(C)NC(=O)c2cc3c(n(CC4CCCCC4)c2=O)CCCCCC3)CC1 [Compound I-570],Ki,[1],68 nM
same,Ki,[2],11 nM
same,inhibition in vivo at 3 %,[3],84%
same,IC50,[4]; [6],709 nM
same,IC50,[5],12 nM
CC(C)(NC(=O)c1cc2c(n(CC3CCCCC3)c1=O)CCCCCC2)C(=O)N1CCC(NS(C)(=O)=O)CC1 [Compound I-572],Ki,[1]; [7],39 nM
same,Ki,[2]; [8],4.4 nM
same,inhibition in vivo at 1 %,[3],97%
same,IC50,[4]; [6],397 nM
same,IC50,[5],2.4 nM
CC(=O)N1CCN(C(=O)C(C)(C)NC(=O)c2cc3c(n(CC4CCCCC4)c2=O)CCCCCC3)CC1 [Compound I-579],Ki,[1]; [7],158 nM
same,Ki,[2],7.3 nM
same,inhibition in vivo at 3 %,[3],99%
same,IC50,[4],431 nM
same,IC50,[5],27 nM
CC(C)(NC(=O)c1cc2c(n(CC3CCCCC3)c1=O)CCCCCC2)C(=O)C1CCCC(C(N)=O)N1 (stereo not drawn) [Compound I-580],Ki,[1],24 nM
same,Ki,[2],7.4 nM
same,inhibition in vivo at 3 %,[3],98%
same,IC50,[4]; [6],41 nM
same,IC50,[5],48 nM
CC(C)(CNCCC(N)=O)NC(=O)c1cc2c(n(CC3CCCCC3)c1=O)CCCCCC2 [Compound I-588],Ki,[1],41 nM
same,Ki,[2],10 nM
same,inhibition in vivo at 1 %,[3],81%
same,IC50,[4]; [6],72 nM
same,IC50,[5],5.7 nM
CNC(=O)CNC(=O)C(C)(C)NC(=O)c1cc2c(n(CC3CCCCC3)c1=O)CCCCCC2 [Compound I-590],Ki,[1],66 nM
same,Ki,[2],16 nM
same,inhibition in vivo at 3 %,[3],75%
same,IC50,[4]; [6],51 nM
same,IC50,[5],2.4 nM
CCNC(=O)C1CCCN(C(=O)C(C)(C)NC(=O)c2cc3c(n(CC4CCCCC4)c2=O)CCCCCC3)C1 (stereo not drawn) [Compound I-595],Ki,[1]; [7],354 nM
same,Ki,[2],9.5 nM
same,inhibition in vivo at 3 %,[3],108%
same,IC50,[4],1210 nM
same,IC50,[5],30 nM
CCS(=O)(=O)NNC(=O)C(C)(C)NC(=O)c1cc2c(n(CC3CCCCC3)c1=O)CCCCCC2 [Compound I-596],Ki,[1]; [7],341 nM
same,Ki,[2],22 nM
same,inhibition in vivo at 3 %,[3],60%
same,IC50,[4],312 nM
same,IC50,[5],30 nM
CC(C)NC(=O)NC1CCN(C(=O)C(C)(C)NC(=O)c2cc3c(n(CC4CCCCC4)c2=O)CCCCCC3)CC1 [Compound I-599],Ki,[1],37 nM
same,Ki,[2],4 nM
same,inhibition in vivo at 0.5 %,[3],67%
same,IC50,[4]; [6],37 nM
same,IC50,[5],13 nM
CCOC(=O)C1CCCCC1NC(=O)c1cc2c(n(CCCNC(C)=O)c1=O)CCCCCC2 (stereo not drawn) [II-031],Ki,[1],> 2000 nM
same,Ki,[2],2.5 nM
same,inhibition in vivo at 2 %,[3],55%
same,IC50,[5],9.9 nM
